Test results from patent publication US20260167659A1, “STING AGONISTS” (LIGACHEM BIOSCIENCES INC., priority 2022, published 2026).

Columns and labels:
hSTING-WT (R232) = biological target: T1, hSTING-WT (R232) (Homo sapiens, UniProt Q86WV6, H232R); assay: STING activation, THP1-Dual IRF3 reporter assay, hSTING-R232 cells; assay type: cell-based; conditions: IRF3 luciferase reporter, 24 hours, read-out: STING activity using hSTING-R232 cells EC50
T1 construct: host or cells: THP1-Dual cells (human monocytes) with knocked-in hSTING R232
Description: To assess potency of STING agonist compounds described herein, THP1-Dual™ Cells (NF—KB-SEAP and IRF-Lucia luciferase reporter monocytes, InvivoGen) were used. The reporter cells were knocked-in either of hSTING-WT (R232, #thpd-r232), HAQ variant (#thpd-nfis), or H232 variant (#thpd-h232). All cells were cultured at 37° C. in a humidified incubator at 5% CO2 and maintained in RPMI 1640 medium (Gibco, #22400097) supplemented with 10% heat-inactivated FBS and 1×Pen-Strep (Gibco, #15140122). To measure STING agonist-mediated IRF3 activity, the cells (9.0×10^4 cells per well) were seeded in a flat-bottomed 96-well plate. The next day, the cells were treated with compounds in a serial dilution for 24 hours. Subsequently, 20 μL of the cell culture supernatant and 50 μL of the QUANTI-Luc™ reagent (InvivoGen, #rep-qlc) were mixed in a 96-well white plate and then, luciferase activity was measured using an EnVision Xcite multilabel reader. The data were analyzed using Prism8 software (4-parameter).
The potency of STING agonist compounds was evaluated by the activation of Type I Interferon pathway using THP-1 IRF3 reporter assay.

[1] = system: human peripheral blood mononuclear cells (PBMCs); assay: Cytokine production induction in PBMCs (ELISA); assay type: cell-based; conditions: 1 μM, 24 hours; for human CXCL-10 production: FIG. 1A; for human IFNα production: FIG. 1B
Description: The cells (2.0×10^4 cells per well) were seeded in a flat-bottomed 96-well plate. PBMCs were stimulated with STING agonist compounds described herein (Compound 214, 221, and 230) at 1 μM for 24 hours. BxPC-3 and MDA-MB-468 tumor cells were treated with STING agonist compounds described herein (Compound 313) in a 5-fold serial dilution from […] for 24 hours, respectively. The levels of cytokines in the culture supernatants were measured using the ELISA kit (R&D systems, #DY266, #DY9345-05) according to the manufacture's instruction.
Briefly, each well of a 96-well plate was coated with 100 μL of the diluted capture antibody in PBS and incubated overnight at room temperature (RT). Next day, each well was washed with wash buffer (0.05% Tween 20 in PBS) three times using an auto-washer. The plates were blocked with 300 μL of Reagent Diluent (1% BSA in PBS) for 1 hour at RT. The aspiration/wash step was repeated. 100 μL of diluted samples or standards in Reagent Diluent was added to each well and incubated for 2 hours at RT. After wash, 100 μL of the Detection Antibody pre-diluted in Reagent Diluent was added into each well and incubated for 2 hours at RT. After wash, 100 μL of the working diluted […] in Reagent Diluent was added and incubated under subdued light conditions for 20 minutes, followed by repeated aspiration/wash. 100 μL of substrate solution (mixed H2O2 and Tetramethylbenzidine in a 1:1 ratio) was added and incubated for 20 minutes at RT in avoiding direct light exposure. The reaction was stopped by adding 50 μL of stop solution (2N H2SO4). The optical density was determined using a microplate reader (Molecular Devices VersaMax Microplate Reader). The optical density (O.D.) of each well was normalized by subtracting the reading at 570 nm from the reading at 450 nm.

[2] = Plasma pharmacokinetics in naive Balb/C mouse, LC-MS/MS; assay type: in vivo; conditions: 1.5 mg/kg single IV; for AUC∞, norm / Cmax, norm: n = 3, dose-normalised; for AUC(0-inf) / AUC(0-t) / C0 / Cmax / clearance / half-life / Vd: female; for AUC(0-inf) / AUC(0-t) / C0 / Cmax: n = 3, plasma; for clearance / half-life / Vd: plasma; for clearance / half-life: n = 3; for Vd: n = 3, read-out: VSS
Description: For in vivo evaluation of STING agonist compounds described herein in naïve Balb/C mouse, single doses of STING agonist compounds were given at 1.5 mg/kg intravenously into female BALB/c mice (Orientbio, South Korea) at 6-8 weeks of age. Pharmacokinetics were studied following injection of the STING agonist compounds into Balb/C mice. Plasma samples were taken at various time points and stored frozen for analysis. The plasma concentrations of the STING agonist compounds at the indicated time points were measured using a LC-MS/MS analysis method.
Briefly, 250 μL of acetonitrile (ACN) solution was added in both 50 μL of sample and 50 μL of plasma containing 10 nM Dextromethorphan (internal standard), and the solutions were mixed vigorously using a vortex mixer for 5 minutes. The samples were then spun down at 14,000 rpm, 4° C. for 5 minutes. 100 μL of supernatants were combined with 100 μL of mobile phase A (0.1% formic acid in water with 5% ACN) and mixed thoroughly. The samples were measured for the STING agonist compounds using a LC-MS/MS (Nexera LC40 (SHIMADZU) and QTRAP4500 (SCIEX)).

human STING = biological target: T2, human STING (Homo sapiens, UniProt Q86WV6, H232R); assay: Direct STING binding, HUMAN STING WT BINDING KIT (Cisbio); conditions: direct binding to human STING WT protein in vitro; read-out: Binding potency EC50
T2 construct: purchased Cisbio 64BDSTGPEG
Text: Additionally, for analysis of direct binding potency of STING agonist compounds described herein to human STING, HUMAN STING WT BINDING KIT (Cisbio, #64BDSTGPEG) was used according to the manufacture's instruction.

[3] = system: human PBMCs (CD8+ T cells and NK cells); assay: CD8+ T and NK cell activation in PBMCs by flow cytometry; assay type: cell-based; conditions: for expansion of activated CD8+ T cells / expansion of activated NK cells: 3 μM, 24 hours; for expansion of activated CD8+ T cells: FIG. 5A; for expansion of activated NK cells: FIG. 5B
Description: To test the effect of STING agonist compounds described herein in the activation of innate and adaptive immune cells, flow cytometry (FACS) was performed. Human THP-1 cells (Korean Cell Line Bank, #40202) and PBMCs were seeded at 1.2×10^5 cells per well in a round-bottomed 96-well plate in RPMI 1640 medium (Gibco, #22400097) supplemented with 10% heat-inactivated FBS and 1× Antibiotic-Antimycotic (Gibco, #15240062) and rested for 24 hours at 37° C. The cells were stimulated with the STING agonist compounds as described; For THP-1 stimulation, the cells were treated with the STING agonist compound (Compound 313) in a 5-fold serial dilution from 1 μM for 48 hours. The induction of cell surface activation markers, CD86 (co-stimulatory molecule) and HLA-DR (MHC-class II), was measured by flow cytometry. […] For flow cytometry analysis, the stimulated cells were centrifuged at 300 g for 5 minutes at 4° C., and then resuspended in FACS buffer (2% FBS, 2 mM EDTA in PBS). After staining cells with human Fc blocker (BD Biosciences, #564220) in FACS buffer for 10 minutes at 4° C. Subsequently, the cells were stained with fluorescence-conjugated antibodies against CD8, CD3, CD56, and CD69 for CD8 T and NK cells activation and against CD86 and MHC-II for THP-1 naïve cells activation for 40 minutes at 4° C. After washing three times with FACS buffer, the cells were resuspended in FACS buffer and analyzed by FACSlyric (BD bioscience). The data were analyzed with Flowjo 9.0 software (BD bioscience).
After treating human PBMCs with the STING agonist compounds, it was analyzed the activation of CD8^+ T cells and NK cells by measuring CD69, an activation marker, on their cell surface by flow cytometry.

[4] = Normal cell cytotoxicity in PBMCs, CellTiter-Glo; assay type: cell-based; conditions: human, read-out: In vitro cell cytotoxicity in PBMCs CC50
Description: PBMCs were also purchased from […]™ (#700025.2). The cells (8.0×10^4 cells per well) were seeded in a flat-bottomed 96-well plate in RPMI 1640 medium (Gibco, #22400097) with 10% heat-inactivated FBS and 1× Antibiotic-Antimycotic (Gibco, #15240062) and rested for 24 hours at 37° C. […] After 72 hours, the cell viability was measured using CellTiter-Glo Luminescent Cell Viability Assay (Promega, #G7573) according to the manufacture's instruction. The signal was detected using an EnVision Xcite multilabel reader and data were analyzed using GraphPad Prism 8 software.
To verify the effect of the STING agonist compounds in normal cell cytotoxicity, the PBMCs were treated with the STING agonist compounds for 3 days and measured the percentage of cell death.

[5] = Normal cell cytotoxicity in CD34+ HSC, CellTiter-Glo; assay type: cell-based; conditions: human, CD34+ hematopoietic stem cells (HSCs), read-out: In vitro cell cytotoxicity in CD34+ HSC CC50
Description: The CD34^+ hematopoietic stem cells (HSCs) were purchased from […]™ (#70002.3). The cells (2×10^4 cells per well) were cultured in StemSpan™ SFEM II medium supplemented with StemSpan™ CD34+ Expansion Supplement (#02691) in a 6-well plate at 37° C. for 7 days. On day 3 or 4, an equal volume of fresh complete medium was added into the cell culture. On day 7, the cells (4×10^4 cells per well) were seeded in a 96-well white plate and rested for 24 hours in the same condition.
After 72 hours, the cell viability was measured using CellTiter-Glo Luminescent Cell Viability Assay (Promega, #G7573) according to the manufacture's instruction. The signal was detected using an EnVision Xcite multilabel reader and data were analyzed using GraphPad Prism 8 software.

T2 sequence (Q86WV6 whole entry H232R): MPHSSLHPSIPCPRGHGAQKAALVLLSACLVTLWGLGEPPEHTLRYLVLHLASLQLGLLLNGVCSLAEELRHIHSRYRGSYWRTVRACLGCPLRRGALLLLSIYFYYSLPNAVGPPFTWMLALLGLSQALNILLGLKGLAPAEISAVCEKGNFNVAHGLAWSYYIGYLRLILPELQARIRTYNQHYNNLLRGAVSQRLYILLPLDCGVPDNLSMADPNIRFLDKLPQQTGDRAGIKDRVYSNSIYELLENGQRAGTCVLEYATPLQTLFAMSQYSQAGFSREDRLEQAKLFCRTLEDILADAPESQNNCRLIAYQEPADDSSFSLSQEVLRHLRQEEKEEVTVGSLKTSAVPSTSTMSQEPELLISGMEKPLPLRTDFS
T1 sequence (Q86WV6 whole entry H232R): as above

Structure (SMILES)	EC50 (hSTING-WT (R232)) [nM]	human CXCL-10 production [1]	human IFNα production [1]	AUC∞, norm [2] [kg·h/L]	Cmax, norm [2] [kg/L]	AUC(0-inf) [2] [ng·h/mL]	AUC(0-t) [2] [ng·h/mL]	C0 [2] [ng/mL]	Cmax [2] [ng/mL]	clearance [2] [mL/min/kg]	half-life [2] [h]	Vd [2] [L/kg]	EC50 (human STING) [nM]	expansion of activated CD8+ T cells [3]	expansion of activated NK cells [3]	CD69 expression on CD8+ T cells ([3]; 100 nM, 48 hours, FIG. 4A)	CD69 expression on NK cells ([3]; 100 nM, 48 hours, FIG. 4B)	CC50 at 72 h [4] [nM]	CC50 at 72 h [5] [nM]
CCn1nc(C)cc1C(=O)Nc1nc2cc(C(N)=O)cc(OC)c2n1CC=CCn1c(NC(=O)c2cc(C)nn2CC)nc2cc(C(N)=O)cc(OCCCN3CCN(C(=O)OCc4ccc(OC5OC(C(=O)O)C(O)C(O)C5O)c(C(=O)NCCOC)c4)CC3=O)c21 (centres unmarked) [Compound 221]	68.3	induced cytokine production	induced cytokine production	4.53 ± 0.15	5.37 ± 0.30	6800 ± 230	6670 ± 220	9790 ± 430	8060 ± 450	3.67	1.06 ± 0.04	0.26 ± 0.01	–	–	–	–	–	–	–
CCn1nc(C)cc1C(=O)Nc1nc2cc(C(N)=O)cc(OC)c2n1C/C=C/Cn1c(NC(=O)c2cc(C)nn2CC)nc2cc(C(N)=O)cc(OC/C=C/Cn3cc(NC(=O)OCc4ccc(O[C@@H]5O[C@H](C(=O)O)[C@@H](O)[C@H](O)[C@H]5O)c(C(=O)NCCOCCOCCO[C@@H]5O[C@H](C(=O)O)[C@@H](O)[C@H](O)[C@H]5O)c4)cn3)c21 [Compound 344]	11.1	–	–	–	–	–	–	–	–	–	–	–	0.24	enhanced expansion	enhanced expansion	–	–	–	–
CCn1nc(C)cc1C(=O)Nc1nc2cc(C(N)=O)cc(OC)c2n1C/C=C/Cn1c(NC(=O)c2cc(C)nn2CC)nc2cc(C(N)=O)cc(OCc3cccc(NC(=O)OCc4ccc(O[C@@H]5O[C@H](C(=O)O)[C@@H](O)[C@H](O)[C@H]5O)c(C(=O)NCCOC)c4)c3)c21 [Compound 230]	3.96	induced cytokine production	induced cytokine production	–	–	–	–	–	–	–	–	–	–	–	–	–	–	–	–
CCn1nc(C)cc1C(=O)Nc1nc2cc(C(N)=O)cc(OC/C=C/Cn3cc(NC(=O)OCc4ccc(O[C@@H]5O[C@H](C(=O)O)[C@@H](O)[C@H](O)[C@H]5O)c(C(=O)NCCOCCOCCN5CCOCC5)c4)cn3)c2n1C/C=C/Cn1c(NC(=O)c2cc(C)nn2CC)nc2cc(C(N)=O)cc(OCCCC(=O)O)c21 [Compound 361]	35.8	–	–	–	–	–	–	–	–	–	–	–	0.1	enhanced expansion	enhanced expansion	–	–	–	–
CCn1nc(C)cc1C(=O)Nc1nc2cc(C(N)=O)cc(OC)c2n1C/C=C/Cn1c(NC(=O)c2cc(C)nn2CC)nc2cc(C(N)=O)cc(OC/C=C/Cn3cc(NC(=O)OCc4ccc(O[C@@H]5O[C@H](C(=O)O)[C@@H](O)[C@H](O)[C@H]5O)c(C(=O)NCCOCCOCCO)c4)cn3)c21 [Compound 277]	27.4	–	–	7.37 ± 0.25	4.04 ± 0.24	11100 ± 370	10500 ± 490	6530 ± 320	6060 ± 360	2.33	1.38 ± 0.19	0.27 ± 0.03	0.2	–	–	enhanced CD69 expression	enhanced CD69 expression	32.1	13.5
